This note sets out measurements from PubChem BioAssay AID493133 (Sanford-Burnham Center for Chemical Genomics, 2011).

This assay concerns the target Alkaline phosphatase, tissue-nonspecific isozyme (Homo sapiens) (UniProt P05186). The experiment in a line: TNAP enzyme activity modulation, counter to mouse IAP activators, SAR follow-up, selectivity assay for mouse IAP activator project, biochemical (AID 493133). The note with it: purified human TNAP enzyme, phosphatase activity counter-screen. On the technique in general: A counterscreen serves to expose hits that act by an unwanted route or on another target.

Activity calls are given as the source filed them. How the calls were made is not given here.

Alkaline phosphatase, tissue-nonspecific isozyme (Homo sapiens), sequence (P05186 whole entry, looked up): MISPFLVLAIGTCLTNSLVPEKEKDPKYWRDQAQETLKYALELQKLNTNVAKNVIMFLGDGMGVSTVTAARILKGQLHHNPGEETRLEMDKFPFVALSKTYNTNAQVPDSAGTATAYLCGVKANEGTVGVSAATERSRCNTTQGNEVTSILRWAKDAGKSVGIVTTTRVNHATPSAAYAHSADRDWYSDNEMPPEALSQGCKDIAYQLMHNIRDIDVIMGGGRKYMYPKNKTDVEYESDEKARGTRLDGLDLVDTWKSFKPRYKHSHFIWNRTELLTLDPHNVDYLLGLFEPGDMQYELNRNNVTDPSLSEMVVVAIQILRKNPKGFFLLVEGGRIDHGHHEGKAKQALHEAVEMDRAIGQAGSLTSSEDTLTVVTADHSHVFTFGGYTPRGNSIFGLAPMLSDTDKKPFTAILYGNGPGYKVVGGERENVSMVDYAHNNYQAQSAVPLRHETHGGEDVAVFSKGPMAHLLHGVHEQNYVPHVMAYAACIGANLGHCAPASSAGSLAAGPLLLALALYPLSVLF

As for `Cc1ccc(C)c(NC(=O)CCNS(=O)(=O)c2ccc3[nH]c(=O)oc3c2)c1`, the EC50 is > 100 µM (inactive).

As to `CCOC(=O)N1CCN(S(=O)(=O)c2ccc3[nH]c(=O)oc3c2)CC1`, the EC50 is > 100 µM (inactive).

For the compound `CC(C(=O)Nc1cccc(C(=O)O)c1)N1C(=O)/C(=C\c2ccco2)SC1=S` (centres undefined), the EC50 is > 100 µM (inactive).

With `O=C(N/N=C/c1ccccc1F)c1cc(O)c(O)c(O)c1`, the EC50 is > 100 µM (inactive).

Regarding `Cc1ccc(NC(=O)CCNS(=O)(=O)c2ccc3[nH]c(=O)oc3c2)cc1N(C)C`, the EC50 was > 100 µM (inactive).

Regarding `CC(C(=O)N(C)C1CCS(=O)(=O)C1)N1C(=O)/C(=C/c2ccco2)SC1=S` (centres undefined), the EC50 was > 100 µM (inactive).

Consider `CCOc1ccc2nc(NC(=O)CN(C)S(=O)(=O)c3ccc4[nH]c(=O)oc4c3)sc2c1`, for which the EC50 was > 100 µM (inactive).

As for `N#Cc1c(SCC(=O)Nc2ccc(Cl)cc2Cl)sc2c(O)cc(=O)[nH]c12`, the EC50 is > 100 µM (inactive).

In the case of `O=C(NCCc1ccc(Cl)cc1)C1CCCN(S(=O)(=O)c2ccc3[nH]c(=O)oc3c2)C1` (centres undefined), the EC50 is > 100 µM (inactive).

`CCOc1ccccc1NC(=O)CCNS(=O)(=O)c1ccc2[nH]c(=O)oc2c1`: the EC50 was > 100 µM (inactive).

With `CC(C(=O)Nc1ccc(C(=O)O)c(O)c1)N1C(=O)/C(=C\c2ccco2)SC1=S` (centres undefined), the EC50 was > 100 µM (inactive).

As for `C/C(=N\NC(=O)c1cc(O)c(O)c(O)c1)c1ccncc1`, the EC50 is > 100 µM (inactive).

For the compound `Cc1cc(=O)oc2cc(NC(=S)NCCC(c3ccccc3)c3ccccc3)ccc12`, the EC50 is > 100 µM (inactive).

In the case of `N#Cc1c(SCC(=O)Nc2cccc(F)c2)sc2c(O)cc(=O)[nH]c12`, the EC50 is > 100 µM (inactive).

For `FC(F)(F)c1cccc(NC(=S)NCCC(c2ccccc2)c2ccccc2)c1`, the EC50 is 84.5 µM.

Turning to `COc1ccccc1NC(=O)CCNS(=O)(=O)c1ccc2[nH]c(=O)oc2c1`, the EC50 is > 100 µM (inactive).

As for `COc1ccc(NC(=O)C(CC(C)C)NS(=O)(=O)c2ccc3[nH]c(=O)oc3c2)cc1` (centres undefined), the EC50 is > 100 µM (inactive).

Consider `COc1cccc(/C=N/NC(=O)c2cc(O)c(O)c(O)c2)c1`, for which the EC50 is > 100 µM (inactive).

Turning to `Cc1csc(NC(=O)CSc2sc3c(O)cc(=O)[nH]c3c2C#N)n1`, the EC50 was > 100 µM (inactive).

Regarding `COc1cc(C(=O)NNC(=O)C2CC2)cc(OC)c1OC`, the EC50 is > 100 µM (inactive).

As for `Cc1ccc(Cl)cc1NC(=O)CSc1sc2c(O)cc(=O)[nH]c2c1C#N`, the EC50 was > 100 µM (inactive).

On to `CCN(C(=O)CN1C(=O)/C(=C\c2ccco2)SC1=S)C1CCS(=O)(=O)C1` (centres undefined), for which the EC50 was > 100 µM (inactive).

On to `NS(=O)(=O)c1ccc(-c2ccc(/C=C3\SC(=S)N(C4CCS(=O)(=O)C4)C3=O)o2)cc1` (centres undefined), for which the EC50 was > 100 µM (inactive).

Consider `O=C(CN1C(=O)/C(=C/c2ccco2)SC1=S)NC1CCS(=O)(=O)C1` (centres undefined), for which the EC50 was > 100 µM (inactive).

As to `CC(C)N1CCC(=NNC(=O)c2cc(O)c(O)c(O)c2)CC1`, the EC50 is > 100 µM (inactive).

In the case of `N#Cc1c(SCC(=O)Nc2ccc(C(F)(F)F)cc2)sc2c(O)cc(=O)[nH]c12`, the EC50 was > 100 µM (inactive).

Turning to `N#Cc1c(SCC(=O)Nc2nccs2)sc2c(O)cc(=O)[nH]c12`, the EC50 was > 100 µM (inactive).

Consider `COc1cc(C(=O)NNC(=S)NC(=O)c2ccccc2C)cc(OC)c1OC`, for which the EC50 was 40.5 µM.

As to `O=C(CCNS(=O)(=O)c1ccc2[nH]c(=O)oc2c1)Nc1ccccc1`, the EC50 is > 100 µM (inactive).

On to `COc1ccc(NC(=S)NCCC(c2ccccc2)c2ccccc2)cc1`, for which the EC50 was 44.8 µM.

`COc1ccc(CNC(=O)CSc2sc3c(O)cc(=O)[nH]c3c2C#N)cc1`: the EC50 is > 100 µM (inactive).

Turning to `O=C(CN1C(=O)/C(=C/c2ccco2)SC1=S)Nc1cccc(C(=O)O)c1`, the EC50 is > 100 µM (inactive).

`COc1ccc(Cl)cc1NC(=O)CSc1sc2c(O)cc(=O)[nH]c2c1C#N`: the EC50 is > 100 µM (inactive).

With `CN(C(=O)CN1C(=O)/C(=C\c2ccco2)SC1=S)C1CCS(=O)(=O)C1` (centres undefined), the EC50 was > 100 µM (inactive).

In general, EC50 refers to the concentration that produces a half-maximal response.
